#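 Interpolation was linear, between the two tested concentrations surrounding the appropriate level; five concentrations were tested over 48 hours in 96-well plates. GI50 = concentration required for 50% inhibition of growth. The concentration for full growth arrest is given as TGI.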
# Test system: SF-295 CNS
# Assay: DTP human tumour cell line panel, 48 h
SMILES,GI50 [µM],TGI [µM]
O=C1Nc2ccccc2/C1=N\[O-].O=C1Nc2ccccc2/C1=N\[O-].[Cu+2],> 100,> 100
CN1C(=O)N(C)C2C1NN=c1s/c(=C\c3ccc(Cl)cc3Cl)c(=O)n12 (configuration not stated),0.0579,15.3
CCC[CH2][Sn]([Cl])([CH2]CCC)[CH2]CCC,0.12,0.245
Cc1ccc(NC(=O)CC2CC2)cc1-c1ccc(C(=O)NCC2CC2)cc1,> 25,> 25
CCOC(=O)Nc1ccc(C)c(NC(=O)OCC)c1,–,> 100
CNCC#Cc1c(F)ccc2c1/C(=C/c1[nH]ccc1OC)C(=O)N2,0.389,3.55
COc1cc(-n2cc(-c3ccc(F)cc3)[nH]c2=O)cc(OC)c1OC,> 100,> 100
Cn1cc(C2=C(c3cn(CCCCO)c4ccccc34)C(=O)NC2=O)c2ccccc21,5.9,> 25
C1CN2CCN3CCN4CCN1[P+]243,–,> 100

# Test system: SK-MEL-28 melanoma
# Assay: DTP human tumour cell line panel, 48 h
SMILES,TGI [µM],GI50 [µM]
COc1cc(NCc2ccc3nc(N)nc(N)c3c2C)cc(OC)c1OC (tested in a mixture with another compound),50.6,–
COc1ccc(NC(=O)/C(Cc2cc(=O)oc3cc(O)ccc23)=N\NC(C)(C)C)c(OC)c1,> 100,–
O=C1/C(=C/c2ccc3c(c2)OCO3)SC2C=Nc3ccccc3N12 (configuration not stated),> 100,–
CCOc1ccc(NC(=O)C(=O)CC(=O)c2c(C)n([O-])c3ccccc3[n+]2=O)cc1,> 100,–
CC(=O)OC12C=CC(=O)N1c1ccccc1C(=O)O2 (configuration not stated),> 100,–
Cc1cc(Cl)ccc1NC(=O)C(=O)Cc1nc2ccccc2o1,> 100,–
OCC1OC(c2nc(C3=NCCCN3)cs2)C(O)C1O (configuration not stated),> 100,–
CCC(C)COC(=O)c1ccc(N=Cc2ccc(C=Nc3ccc(C(=O)OCC(C)CC)cc3)cc2)cc1 (configuration not stated),> 100,–
Cc1cc(N(CCC#N)CCC#N)ccc1N=Nc1ccc(C(=O)O)cc1,> 100,–
CN(C)CC1CCCC/C1=N/OC(=O)c1ccc(Cl)cc1 (configuration not stated),> 100,–
N#CC(C(=O)C(=O)C(C#N)c1ccc(Br)cc1)c1ccc(Br)cc1 (configuration not stated),28.9,–
COc1cccc(C2=NC(C(C)C)CO2)c1 (configuration not stated),> 100,–
CCOC(=O)C(=[N+]=[N-])[Si](C)(C)C,45.6,–
CCCc1nc(NC#N)nc(C(=O)Nc2ccccc2)c1CC,> 100,–
O=C(CCc1n[nH]c(=S)o1)Nc1ccccc1C(F)(F)F,> 100,–
COc1cc2c(c(OC)c1OC)-c1ccc(SC)c(=O)cc1C(NC=O)CC2 (configuration not stated),> 100,–
Cc1ccc(NC(=O)CCc2cc(C(C)(C)C)nc(=S)[nH]2)cc1C,> 100,–
Cc1[nH]c2ccccc2c1C(=O)/C=C/c1ccccc1O,> 100,–

SMILES,TGI [µM],GI50 [µM]
O=C(Nc1nc(=S)c2c(ncn2CCOC(=O)c2ccccc2)[nH]1)c1ccccc1,> 100,–
COc1ccc(CC2NCCc3c2[nH]c2ccccc32)cc1 (configuration not stated),> 100,–
CCOc1ccc(NC(=O)CC#N)cc1,> 100,–
O=C(/C=C/c1cccc2ccccc12)c1ccccc1Cl,34,–
Cc1ccc(/C=C/C(=O)c2sc(-c3nc(C)c(C(=O)/C=C/c4ccc(C)cc4)s3)nc2C)cc1,> 100,–
O=C1/C(=C/c2ccc(Cl)cc2)CCC1CCN1CCOCC1 (configuration not stated),> 100,–
CC[C@H]1[C@@H]2C=C[C@@H]3[C@H]4C/C=C\C(=O)NCCC[C@@H]5NC(=O)/C(=C(O)/C=C/[C@@H]4C[C@@H]3[C@H]2C[C@H]1C)C5=O,4.06,1.89
O=C1Nc2ccccc2/C1=N\[O-].O=C1Nc2ccccc2/C1=N\[O-].[Cu+2],> 100,> 100
CN1C(=O)N(C)C2C1NN=c1s/c(=C\c3ccc(Cl)cc3Cl)c(=O)n12 (configuration not stated),> 94.6,4.26
CCC[CH2][Sn]([Cl])([CH2]CCC)[CH2]CCC,0.269,0.139
Cc1ccc(NC(=O)CC2CC2)cc1-c1ccc(C(=O)NCC2CC2)cc1,> 25,> 25
CCOC(=O)Nc1ccc(C)c(NC(=O)OCC)c1,> 100,–
O=c1ccn([C@H]2CSC[C@@H](CO)C2)c(=O)[nH]1,> 100,–
CNCC#Cc1c(F)ccc2c1/C(=C/c1[nH]ccc1OC)C(=O)N2,2.88,0.329
COc1cc(-n2cc(-c3ccc(F)cc3)[nH]c2=O)cc(OC)c1OC,> 100,> 100
Cn1cc(C2=C(c3cn(CCCCO)c4ccccc34)C(=O)NC2=O)c2ccccc21,> 25,12.6
C1CN2CCN3CCN4CCN1[P+]243,> 100,–

# Test system: SN12C renal
# Assay: DTP human tumour cell line panel, 48 h
SMILES,GI50 [µM],TGI [µM]
COc1cc(NCc2ccc3nc(N)nc(N)c3c2C)cc(OC)c1OC (tested in a mixture with another compound),0.000457,–
COc1ccc(NC(=O)/C(Cc2cc(=O)oc3cc(O)ccc23)=N\NC(C)(C)C)c(OC)c1,–,> 100
O=C1/C(=C/c2ccc3c(c2)OCO3)SC2C=Nc3ccccc3N12 (configuration not stated),–,> 100
CCOc1ccc(NC(=O)C(=O)CC(=O)c2c(C)n([O-])c3ccccc3[n+]2=O)cc1,–,> 100
CC(=O)OC12C=CC(=O)N1c1ccccc1C(=O)O2 (configuration not stated),–,> 100
Cc1cc(Cl)ccc1NC(=O)C(=O)Cc1nc2ccccc2o1,–,> 100
OCC1OC(c2nc(C3=NCCCN3)cs2)C(O)C1O (configuration not stated),–,> 100
CCC(C)COC(=O)c1ccc(N=Cc2ccc(C=Nc3ccc(C(=O)OCC(C)CC)cc3)cc2)cc1 (configuration not stated),–,> 100
Cc1cc(N(CCC#N)CCC#N)ccc1N=Nc1ccc(C(=O)O)cc1,–,> 100
CN(C)CC1CCCC/C1=N/OC(=O)c1ccc(Cl)cc1 (configuration not stated),–,> 100
N#CC(C(=O)C(=O)C(C#N)c1ccc(Br)cc1)c1ccc(Br)cc1 (configuration not stated),–,28
COc1cccc(C2=NC(C(C)C)CO2)c1 (configuration not stated),–,> 100
CCOC(=O)C(=[N+]=[N-])[Si](C)(C)C,–,> 100
CCCc1nc(NC#N)nc(C(=O)Nc2ccccc2)c1CC,–,> 100
O=C(CCc1n[nH]c(=S)o1)Nc1ccccc1C(F)(F)F,–,> 100
COc1cc2c(c(OC)c1OC)-c1ccc(SC)c(=O)cc1C(NC=O)CC2 (configuration not stated),–,> 89.5
Cc1ccc(NC(=O)CCc2cc(C(C)(C)C)nc(=S)[nH]2)cc1C,–,> 100
Cc1[nH]c2ccccc2c1C(=O)/C=C/c1ccccc1O,–,> 100

SMILES,GI50 [µM],TGI [µM]
O=C(Nc1nc(=S)c2c(ncn2CCOC(=O)c2ccccc2)[nH]1)c1ccccc1,–,> 100
COc1ccc(CC2NCCc3c2[nH]c2ccccc32)cc1 (configuration not stated),–,> 100
CCOc1ccc(NC(=O)CC#N)cc1,–,> 100
O=C(/C=C/c1cccc2ccccc12)c1ccccc1Cl,–,> 100
Cc1ccc(/C=C/C(=O)c2sc(-c3nc(C)c(C(=O)/C=C/c4ccc(C)cc4)s3)nc2C)cc1,–,> 100
O=C1/C(=C/c2ccc(Cl)cc2)CCC1CCN1CCOCC1 (configuration not stated),–,> 100
CC[C@H]1[C@@H]2C=C[C@@H]3[C@H]4C/C=C\C(=O)NCCC[C@@H]5NC(=O)/C(=C(O)/C=C/[C@@H]4C[C@@H]3[C@H]2C[C@H]1C)C5=O,0.569,1.99
O=C1Nc2ccccc2/C1=N\[O-].O=C1Nc2ccccc2/C1=N\[O-].[Cu+2],> 100,> 100
CN1C(=O)N(C)C2C1NN=c1s/c(=C\c3ccc(Cl)cc3Cl)c(=O)n12 (configuration not stated),0.422,> 100
CCC[CH2][Sn]([Cl])([CH2]CCC)[CH2]CCC,0.119,0.254
Cc1ccc(NC(=O)CC2CC2)cc1-c1ccc(C(=O)NCC2CC2)cc1,> 25,> 25
CCOC(=O)Nc1ccc(C)c(NC(=O)OCC)c1,–,> 100
O=c1ccn([C@H]2CSC[C@@H](CO)C2)c(=O)[nH]1,–,> 100
CNCC#Cc1c(F)ccc2c1/C(=C/c1[nH]ccc1OC)C(=O)N2,0.118,2.86
COc1cc(-n2cc(-c3ccc(F)cc3)[nH]c2=O)cc(OC)c1OC,> 100,> 100
Cn1cc(C2=C(c3cn(CCCCO)c4ccccc34)C(=O)NC2=O)c2ccccc21,7.17,> 25
C1CN2CCN3CCN4CCN1[P+]243,–,> 100
